From the NIST ThermoML archive (doi:10.1016/j.jct.2018.03.013)

Assays:
[1] = xn = mol fraction of the nth substance listed; conditions: 100 kPa, Liquid, x1 = 1; for speed of sound: Frequency=3 MHz, Linear variable-path acoustic interferometer; for mass density: Pycnometric method
[2] = 100 kPa, Liquid; for speed of sound: Frequency=3 MHz, Linear variable-path acoustic interferometer; for mass density: Pycnometric method

CC#N [acetonitrile] + C=C(C)C(=O)OC
[1]
Conditions	mass density [kg/m3]	speed of sound [m/s]
293.15 K	782.12	1304.7
298.15 K	776.82	1282.8
303.15 K	771.52	1263.9
308.15 K	766.21	1245
313.15 K	760.9	1226.5
318.15 K	755.59	1207.9

CC#N [acetonitrile]
[2]
Conditions	mass density [kg/m3]	speed of sound [m/s]
293.15 K	782.12	1304.7
298.15 K	776.82	1282.8
303.15 K	771.52	1263.9
308.15 K	766.21	1245
313.15 K	760.9	1226.5
318.15 K	755.59	1207.9

C=C(C)C(=O)OCCCC [butyl 2-methyl-2-propenoate]
[2]
Conditions	mass density [kg/m3]	speed of sound [m/s]
293.15 K	895.19	1241.7
298.15 K	890.48	1222.1
303.15 K	885.78	1202.4
308.15 K	881.07	1183
313.15 K	876.35	1163.8
318.15 K	871.64	1145.7

C=C(C)C(=O)OC [methyl methacrylate]
[2]
Conditions	mass density [kg/m3]	speed of sound [m/s]
293.15 K	943.38	1200.5
298.15 K	937.64	1183.6
303.15 K	931.9	1168.5
308.15 K	926.16	1152.6
313.15 K	920.42	1135.4
318.15 K	914.67	1118.3

C=C(C)C(=O)OCC [ethyl 2-methylpropenoate]
[2]
Conditions	mass density [kg/m3]	speed of sound [m/s]
293.15 K	912.3	1196.8
298.15 K	907.18	1176.9
303.15 K	902.06	1157.6
308.15 K	896.94	1139.4
313.15 K	891.83	1121.5
318.15 K	886.71	1104.6

CC#N [acetonitrile] + C=C(C)C(=O)OCC
[1]
Conditions	mass density [kg/m3]	speed of sound [m/s]
293.15 K	782.12	1304.7
298.15 K	776.82	1282.8
303.15 K	771.52	1263.9
308.15 K	766.21	1245
313.15 K	760.9	1226.5
318.15 K	755.59	1207.9

CC#N [acetonitrile] + C=C(C)C(=O)OCCCC
[1]
Conditions	mass density [kg/m3]	speed of sound [m/s]
293.15 K	782.12	1304.7
298.15 K	776.82	1282.8
303.15 K	771.52	1263.9
308.15 K	766.21	1245
313.15 K	760.9	1226.5
318.15 K	755.59	1207.9
